Publication PMC8568133, “Evaluation of bisphenylthiazoles as a promising class for combating multidrug-resistant fungal infections” (PLoS ONE, 2021)
≈ marks a conversion by molar mass, not a printed value. Read-outs that look alike come from different tables or passages of the source.

Columns and labels:
Candida auris = experiment: Checkerboard assay of compound 17 with standard antifungals; type: cell-based; conditions: for FICI (fractional inhibitory concentration index) / Interpretation of interaction: antifungal combined with compound 17; for MIC Combined, Antifungal: antifungal in combination with compound 17; for MIC: Candidozyma auris, checkerboard, agent alone
Description: To evaluate the interactions between bisphenylthiazoles and the standard antifungal agents (fluconazole, amphotericin B, 5-fluorocytosine and caspofungin) against 2 C. auris clinical isolates, a standard checkerboard assay was utilized as described in previous studies. The fractional inhibitory concentration index (FICI) was calculated for each interaction. Interactions where the FICI was ≤0.5 were categorized as synergistic (SYN). FICI values of >0.5–1.25 were categorized as additive (ADD). FICI values of >1.25–4 were categorized as indifferent, and FICI values of > 4 were categorized as antagonistic. The experiment was repeated three independent times.

Candida parapsilosis = experiment: Antifungal broth microdilution MIC (50% growth inhibition); type: cell-based; conditions: Lodderomyces parapsilosis, read-out: MIC
Description: (§1) Serial dilutions (from 128 μg/mL to 0.06 μg/mL) of the tested compounds and control drugs (fluconazole, itraconazole and amphotericin) (in triplicates), were screened against clinical isolates of Candida albicans, Candida auris, Candida glabrata, Candida parapsilosis, Candida tropicalis, Candida krusei, Cryptococcus neoformans, Cryptococcus gattii and Aspergillus fumigatus species using the broth microdilution method according to the Clinical and Laboratory Standards Institute guidelines. MICs were determined as the lowest concentration of the compounds that inhibited the fungal growth by 50% after incubation at 35 °C for 24 h (for Candida and Aspergillus), or 48 h (for Cryptococcus). The minimum fungicidal concentration (MFC) of these compounds was tested by plating 4 μL from wells with no growth onto YPD agar plates. The plates were incubated at 37 °C for 24 hours before recording the MFC, which was categorized as the lowest concentration that reduced fungal growth by 99.9% [45]. The experiment was repeated three independent times.

Candida albicans = experiment: Antifungal broth microdilution MIC (50% growth inhibition) and MFC; type: cell-based; conditions: Candida albicans
Description: as §1

Candida krusei = experiment: as above; type: cell-based; conditions: Pichia kudriavzevii, read-out: MIC
Description: as §1

Candida glabrata = experiment: as above; type: cell-based; conditions: Nakaseomyces glabratus
Description: as §1

Candida tropicalis = experiment: as above; type: cell-based; conditions: Candida tropicalis, ATCC1369
Description: as §1

MRSA USA300 = experiment: Broth microdilution MIC, initial antibacterial screening; type: cell-based, S. aureus; conditions: Staphylococcus aureus; MRSA USA300; read-out: MIC
Description: (§2) The minimum inhibitory concentrations (MICs) of the tested compounds and control drugs against clinically-relevant bacterial strains were determined using the broth microdilution method, according to guidelines outlined by the Clinical and Laboratory Standards Institute (CLSI), or as described previously.
(§3) Initial screening of the bisphenylthiazoles against Gram-positive and Gram-negative bacteria. Bacterial strains, (except C. difficile that was grown anaerobically on brain heart infusion supplemented agar at 37° C for 48 hours), were grown aerobically overnight on tryptone soy agar plates at 37° C. Afterwards, a bacterial solution equivalent to 0.5 McFarland standard was prepared and diluted in cation-adjusted Mueller-Hinton broth (CAMHB) (for S. aureus, and E. coli) to achieve a bacterial concentration of about 5 × 10^5 CFU/mL. C. difficile was diluted in brain heart infusion supplemented broth, supplemented with yeast extract, hemin and vitamin K to achieve a bacterial concentration of about 5 × 10^5 CFU/mL. Compounds and control drugs were added in the first row of the 96 -well plates, and serially diluted with the corresponding media containing bacteria. Plates were then, incubated aerobi cally at 37° C for 18-20 hours (for S. aureus and E. coli). C. difficile was incubated anaerobically at 37° C for 48 hours. […]
(§4) the visual growth of bacteria.

[1] = test system: C. difficile ATCC BAA1870; experiment: Broth microdilution MIC, initial antibacterial screening (anaerobic); type: cell-based, Clostridioides difficile; conditions: Clostridioides difficile, ATCCBAA1870, read-out: MIC
Description: as §2, §3, §4

[2] = test system: E. coli BW25113 (wild-type); experiment: Broth microdilution MIC, initial antibacterial screening; type: cell-based, Escherichia coli; conditions: Escherichia coli, read-out: MIC
Description: as §2, §3, §4

[3] = test system: E. coli JW55031 (tolC-mutant); experiment: microbe, parasite or virus in culture; type: cell-based, Escherichia coli; conditions: Escherichia coli
Description: as §2, §3, §4

Aspergillus fumigatus = experiment: Antifungal broth microdilution MIC (50% growth inhibition); type: cell-based; conditions: Aspergillus fumigatus, read-out: MIC
Description: as §1

[4] = Candida auris 381 (azole-sensitive)
[5] = Candida auris 385 (azole-resistant)
[6] = C. albicans SS5314 (wild-type), read-out: MIC

Structure (SMILES)	MIC (MRSA USA300) [µg/mL]	MIC [1] [µg/mL]	MIC [2] [µg/mL]	MIC (Candida albicans; [6]) [µg/mL]	MIC [3] [µg/mL]	melting point [°C]	also measured
CC[C@H](C)C[C@H](C)CCCCCCCCC(=O)N[C@H]1C[C@@H](O)[C@@H](NCCN)NC(=O)[C@@H]2[C@@H](O)CCN2C(=O)[C@H]([C@H](O)CCN)NC(=O)[C@H]([C@H](O)[C@@H](O)c2ccc(O)cc2)NC(=O)[C@@H]2C[C@@H](O)CN2C(=O)[C@H]([C@@H](C)O)NC1=O [Caspofungin]	–	–	–	–	–	–	FICI (fractional inhibitory concentration index) (Candida auris; [4]): 1.250; Interpretation of interaction (Candida auris; [4]): ADD (FICI values of >0.5–1.25 were categorized as additive (ADD)); MIC Combined, Antifungal (Candida auris; [4]): 0.5 µg/mL; FICI (fractional inhibitory concentration index) (Candida auris; [5]): 1.125; Interpretation of interaction (Candida auris; [5]): ADD (FICI values of >0.5–1.25 were categorized as additive (ADD)); MIC Combined, Antifungal (Candida auris; [5]): 0.063 µg/mL; MIC (Candida auris; [4]): 0.5 µg/mL; MIC (Candida auris; [5]): 0.063 µg/mL; MIC (Candida parapsilosis; ATCC22019, C. parapsilosis ATCC 22019): 0.5 µg/mL (≈ 0.457 µM); MIC (Candida parapsilosis; C. parapsilosis CAB 502638): 0.5 µg/mL (≈ 0.457 µM); MIC (Candida albicans; ATCC10231): 0.125 µg/mL (≈ 0.114 µM); MIC (Candida albicans; C. albicans NR-29448 (fluconazole-resistant), read-out: MIC): 0.25 µg/mL (≈ 0.229 µM); MIC (Candida krusei; ATCC34135, C. krusei ATCC 34135): 0.5 µg/mL (≈ 0.457 µM); MIC (Candida krusei; C. krusei CAB 396420): 0.5 µg/mL (≈ 0.457 µM); MIC (Candida glabrata): 0.125 µg/mL (≈ 0.114 µM); MIC (Candida glabrata; ATCC66032, C. glabrata ATCC 66032, read-out: MIC): 0.25 µg/mL (≈ 0.229 µM); MIC (Candida tropicalis): 0.125 µg/mL (≈ 0.114 µM)
Cc1nc(-c2ccc(-c3ccccc3)cc2)sc1-c1nnc(NC2CCNC2)o1 (stereo not shown) [Compound 10, 5-{2-[(1,1’-Biphenyl)-4-yl]-4-methylthiazol-5-yl}-N-(pyrrolidin-3-yl)-1,3,4-oxadiazol-2-amine]	> 64	32 (≈ 79.3 µM)	> 64	8 (≈ 19.8 µM)	> 64	116 to 117	–
Cc1nc(-c2ccc(-c3ccccc3)cc2)sc1-c1nnc(N2CC[C@@H](N(C)C)C2)o1 [Compound 11, (R)-1-{5-[2-((1,1’-biphenyl)-4-yl)-4-methylthiazol-5-yl]-1,3,4-oxadiazol-2-yl}-N,N-dimethylpyrrolidin-3-amine]	> 64	> 64	> 64	> 64	> 64	165 to 167	–
Cc1nc(-c2ccc(-c3ccccc3)cc2)sc1-c1nnc(N2CC[C@H](N(C)C)C2)o1 [Compound 12, (S)-1-{5-[2-((1,1’-biphenyl)-4-yl)-4-methylthiazol-5-yl]-1,3,4-oxadiazol-2-yl}-N,N-dimethylpyrrolidin-3-amine]	16 (≈ 37.1 µM)	32 (≈ 74.1 µM)	> 64	16 (≈ 37.1 µM)	> 64	185 to 187	–
Cc1nc(-c2ccc(-c3ccccc3)cc2)sc1-c1nnc(N2CCCCC2CN)o1 (stereo not shown) [Compound 15, {1-[5-(2-((1,1’-Biphenyl)-4-yl)-4-methylthiazol-5-yl)-1,3,4-oxadiazol-2-yl]piperidin-2-yl}methanamine]	16 (≈ 37.1 µM)	16 (≈ 37.1 µM)	> 64	16 (≈ 37.1 µM)	16 (≈ 37.1 µM)	225 to 227	–
Cc1nc(-c2ccc(-c3ccccc3)cc2)sc1-c1nnc(N[C@H]2CC[C@H](N)CC2)o1 [Compound 18, trans-N-{5-[2-((1,1’-Biphenyl)-4-yl)-4-methylthiazol-5-yl]-1,3,4-oxadiazol-2-yl}cyclo-hexane-1,4-diamine]	32 (≈ 74.1 µM)	8 (≈ 18.5 µM)	> 64	16 (≈ 37.1 µM)	32 (≈ 74.1 µM)	260 to 263	–
Cc1nc(-c2ccc(-c3ccccc3)cc2)sc1-c1nnc(NCCO)o1 [Compound 19, 2-{[5-(2-((1,1’-Biphenyl)-4-yl)-4-methylthiazol-5-yl)-1,3,4-oxadiazol-2-yl]amino} ethan-1-ol]	> 64	64 (≈ 169 µM)	> 64	> 64	> 64	210 to 213	–
CCC(C)n1ncn(-c2ccc(N3CCN(c4ccc(OCC5COC(Cn6cncn6)(c6ccc(Cl)cc6Cl)O5)cc4)CC3)cc2)c1=O (stereo not shown) [Itraconazole, reference compound]	–	–	–	–	–	–	MIC (Aspergillus fumigatus; A. fumigatus NR 35303): 1 µg/mL (≈ 1.42 µM); MIC (Aspergillus fumigatus; A. fumigatus NR 35304): 1 µg/mL (≈ 1.42 µM)
